Source: US9957325B2, “Synthetic antibody mimic peptides” (Formurex, Inc., priority 2015, dated 2018)
Where two headings read alike, the source gives them in different places. Where a SMILES comes first, the peptide text is derived from it. The star is where a group is joined. X1 = CC[C@H](C)[C@@H]([C@@H](CC(=O)N1CCC[C@H]1[C@H](OC)[C@@H](C)C(=O)N[C@H](C)[C@@H](OC(=O)CCCCC(=NNC(=O)CCCCCN1C(=O)CC(*)C1=O)c1ccccc1)c1ccccc1)OC)N(C)C(=O)[C@@H](NC(=O)[C@H](C(C)C)N(C)C)C(C)C

Key:
[1] = tested on: A431 cells; conditions: for IC50: A431, 72 h, SRB; for more potent than the drug alone: EGFR over-expressing cancer cells (A431, MDA-MB-468), vs auristatin E
Experimental: (§1) Cells were cultured to 80% confluency in T75 culture flasks using Dulbecco's Modified Eagle's Medium (DMEM) as growth medium. The cell density was determined using a Coulter Counter. The cells were seeded onto 96 well plates and grown for 24 h. to 50% confluency. […] At the end of the incubation period, the cells were fixed using 10% trichloroacetic acid, followed by washing with distilled water and drying. The cellular proteins were stained using 50 μL of 0.4% sulforhodamine B (SRB) in 1% acetic acid. Unbound SRB was washed with 1% acetic acid and the plates were dried overnight. The cell-bound SRB was then solubilized using 200 μL of 10 mM unbuffered Tris base solution. SRB absorbance was measured at 560 nm wavelength using a Plate Reader. The percent viability of cells was plotted as a function of log concentration and data was analyzed in GraphPad Prism Version 5.0 software (GraphPad Software, Inc., California, USA) using a nonlinear-regression curve fit (variable slope four parameter equation).

[2] = tested on: HEK 293 cells; conditions: for IC50: HEK 293, 72 h, SRB
Experimental: as §1

[3] = tested on: MDA-MB-468 cells; assay: In vitro cytotoxicity, sulforhodamine B assay; format: cell-based; conditions: MDA-MB-468, 72 h, SRB
Experimental: as §1

[4] = biological target: T1, HER2 recombinant human protein (Homo sapiens, UniProt P04626); assay: Surface plasmon resonance on immobilized HER2; format: binding; conditions: SPR
T1 construct: purchased Life Technologies / Thermo Fisher Scientific Inc
Experimental: All experiments were carried out at 25° C. with a data collection rate of 2 Hz. The running method was created using the Autolink control software. PBS with 0.01% Tween 20 (pH7.4) buffers were filtered and thoroughly degassed before use. HER2 recombinant human protein was covalently attached to the left channel of a 500,000 Da carboxymethylated dextran sensor chip using EDC and NHS chemistries. Then, the chip was blocked by passing EA for 8 minutes at a rate of 10 μL/min. […] Triplicate determinations were done at each concentration. The bound surface was regenerated by sequential injections of 10 mM glycine in PBST (pH 2.5).
The sensorgrams from SPR were globally treated using Scrubber 2® software where all traces were zeroed, cropped, aligned, and referenced. Kinetic constants ka and kd were determined by global fitting analyses of the titration curves using the 1:1 Lagmurian interaction model taking into account the mass transport. The equilibrium dissociation constant (KD) was calculated from the kd/ka ratio.

[5] = tested on: MDA-MB-361, ZR-75-1 and HEK293 cells; assay: Confocal microscopy binding of FITC labeled HER2-PEPs; format: cell-based; conditions: 10 μM FITC labeled peptide, 15 minutes at 37° C.
Experimental: MDA-MB-361, ZR-75-1 and […] cells were grown in T75 flasks at 37° C. and 5% CO2. Upon reaching 80% confluency, the cells were counted and seeded onto coverslips placed inside 6-well culture plates at a density of 80,000 cells/well. The cells were allowed to attach for 24 hours before the experiment was performed. Upon attachment, the cells were washed twice with HBSS and serum free media.
Stock solutions of FITC labeled HER2-PEPs and control peptide were prepared with dimethyl sulfoxide (DMSO). Stock solutions were diluted with serum free media medium several times and less than 1% of DMSO was presented in the final solutions of all peptides (10 μM), which were added to the 6-well culture plates.
After incubating 15 minutes at 37° C., the medium was removed and the cells were washed twice with HBSS. The cells were then treated with a 2.5 μg/mL solution of Alexa fluor 594 wheat germ agglutinin in HBSS for 10 minutes to stain the cell plasma membrane. The dye solution was removed and cells were washed twice with HBSS. The cells were then fixed by performing a 15 minute treatment using 4% paraformaldehyde solution prepared in HBSS. The cells were washed with HBSS followed by a final wash of distilled water. […] The FITC fluorescence was visualized using 491 nm and the Alexa fluor 594 fluorescence was visualized using 561 nm wavelength filter.

[6] = Peptide-drug conjugate pH hydrolysis study; format: physicochemical
Experimental: Peptide-drug conjugate was evaluated for half-life determination at pH 5 and 7.4. For this, a 1 mg/mL concentration of PDC was incubated in ammonium bicarbonate buffers, pH 5 and 7.4. Degradation of PDC was evaluated by calculating the area under the curve after 0, 0.5, 1, 2, 4, 6 and 48 hours using HPLC with a gradient method, with TEAA buffer pH 7 and acetonitrile.

[7] = biological target: Recombinant human EGFR (Homo sapiens, UniProt P00533); assay: Surface plasmon resonance on immobilized EGFR; conditions: SPR, EGFR as immobilized surface, 1:1 binding model, 25° C.
Experimental: Binding affinity constant of antibody mimics was calculated by surface plasmon resonance (Reichert SR7000DC). A carboxymethyl dextran gold sensor chip was activated by N-hydroxysuccinimide (NHS) and N-ethyl-N″-[3-([…])propyl] carbodiimide (EDC) at 25° C. using phosphate buffered saline pH 7.4 with 0.05% tween 20 as running buffer. […] Unreactive sites were blocked by flowing over the chip 1 M ethanolamine pH 8.5 at 10 μL/min for 8 minutes. […] The resulting sensograms were globally fitted using Scrubber2 software (BioLogic Software, Campbell, Australia) in a 1:1 binding model to determine the association rate (kon), dissociation rate (kd or koff), and dissociation constant KD.

[8] = tested on: A431, MDA-MB-468 and HEK 293 cells; assay: Confocal binding/internalization of FITC labeled peptides; format: cell-based
Experimental: (§2) A431, MDA-MB-468 and HEK 293 cells were cultured in 75 cm^2 culture flasks in DMEM supplemented with 10% FBS. For binding/internalization studies, 5×10^5 cells were seeded in cover slips in 6 well culture plates overnight. After the medium was removed, the cells were washed with HBSS and then cells were treated with FITC labeled antibody mimic and scrambled (control) peptide in serum free DMEM for 30 minutes at 37° C. Cells were then washed with HBSS to remove any unbound peptides and incubated with AlexaFluor 594 wheat germ agglutinin to stain cell membranes. Cells were fixed with 4% paraformaldehyde and cover slips were mounted on slides which contain a drop of SlowFade®. Cells were then imaged with an inverted Leica DMIRE2 fluorescence microscope (Leica Biosystems Richmond Inc., Richmond, USA) using a Yokogawa CSUX1 confocal scanner unit. For flow cytometry studies, cells were washed with HBSS after incubation with antibody mimics, control peptide for 30 minutes, and dissociated using trypsin-EDTA. Cells were then centrifuged at 500 g for 5 min. Supernatant was removed and cell pellets were re-suspended in FACS solution. The cell suspension was then analyzed on a Beckman Coulter flow cytometer and data were analyzed using the Cell Questpro. A total of 10000 events were collected monitoring FITC.

[9] = tested on: A431 cells; assay: Flow cytometry uptake of FITC labeled peptides; format: cell-based
Experimental: as §2

[10] = tested on: MDA-MB-468 cells; assay: Flow cytometry uptake of FITC labeled peptides; format: cell-based
Experimental: as §2

T1 sequence (P04626 23-1255): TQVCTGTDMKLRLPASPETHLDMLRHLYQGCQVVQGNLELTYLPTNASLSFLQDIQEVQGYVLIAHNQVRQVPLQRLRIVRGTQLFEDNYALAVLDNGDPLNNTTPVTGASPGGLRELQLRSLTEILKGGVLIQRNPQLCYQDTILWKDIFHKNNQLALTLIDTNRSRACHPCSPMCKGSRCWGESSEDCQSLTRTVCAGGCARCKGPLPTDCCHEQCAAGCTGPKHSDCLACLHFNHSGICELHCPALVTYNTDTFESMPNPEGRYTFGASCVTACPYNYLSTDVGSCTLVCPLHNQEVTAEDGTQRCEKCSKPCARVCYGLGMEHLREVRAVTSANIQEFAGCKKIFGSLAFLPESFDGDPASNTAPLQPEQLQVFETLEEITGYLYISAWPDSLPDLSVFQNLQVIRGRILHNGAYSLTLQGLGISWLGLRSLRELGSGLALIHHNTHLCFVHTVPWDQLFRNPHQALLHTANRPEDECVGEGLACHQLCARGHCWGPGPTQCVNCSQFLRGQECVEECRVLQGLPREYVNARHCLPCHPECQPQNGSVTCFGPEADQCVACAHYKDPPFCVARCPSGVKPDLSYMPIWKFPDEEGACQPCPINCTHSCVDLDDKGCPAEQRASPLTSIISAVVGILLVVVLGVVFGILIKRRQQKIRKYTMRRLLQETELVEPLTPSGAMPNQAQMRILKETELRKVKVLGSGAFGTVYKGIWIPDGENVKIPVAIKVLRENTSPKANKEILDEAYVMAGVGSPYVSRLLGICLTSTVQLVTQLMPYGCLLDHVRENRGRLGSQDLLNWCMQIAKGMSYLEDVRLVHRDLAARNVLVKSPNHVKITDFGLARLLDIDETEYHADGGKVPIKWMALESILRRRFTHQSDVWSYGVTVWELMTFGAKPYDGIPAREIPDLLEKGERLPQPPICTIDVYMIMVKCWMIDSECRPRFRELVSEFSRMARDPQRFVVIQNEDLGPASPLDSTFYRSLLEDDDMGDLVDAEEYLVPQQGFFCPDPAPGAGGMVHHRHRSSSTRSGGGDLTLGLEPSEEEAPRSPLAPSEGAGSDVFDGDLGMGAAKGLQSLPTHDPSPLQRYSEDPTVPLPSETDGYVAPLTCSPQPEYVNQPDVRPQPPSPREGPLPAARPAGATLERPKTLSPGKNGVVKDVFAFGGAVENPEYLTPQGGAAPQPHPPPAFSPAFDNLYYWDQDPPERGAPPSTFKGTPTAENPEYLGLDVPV
Sequence of Recombinant human EGFR (P00533 25-1210): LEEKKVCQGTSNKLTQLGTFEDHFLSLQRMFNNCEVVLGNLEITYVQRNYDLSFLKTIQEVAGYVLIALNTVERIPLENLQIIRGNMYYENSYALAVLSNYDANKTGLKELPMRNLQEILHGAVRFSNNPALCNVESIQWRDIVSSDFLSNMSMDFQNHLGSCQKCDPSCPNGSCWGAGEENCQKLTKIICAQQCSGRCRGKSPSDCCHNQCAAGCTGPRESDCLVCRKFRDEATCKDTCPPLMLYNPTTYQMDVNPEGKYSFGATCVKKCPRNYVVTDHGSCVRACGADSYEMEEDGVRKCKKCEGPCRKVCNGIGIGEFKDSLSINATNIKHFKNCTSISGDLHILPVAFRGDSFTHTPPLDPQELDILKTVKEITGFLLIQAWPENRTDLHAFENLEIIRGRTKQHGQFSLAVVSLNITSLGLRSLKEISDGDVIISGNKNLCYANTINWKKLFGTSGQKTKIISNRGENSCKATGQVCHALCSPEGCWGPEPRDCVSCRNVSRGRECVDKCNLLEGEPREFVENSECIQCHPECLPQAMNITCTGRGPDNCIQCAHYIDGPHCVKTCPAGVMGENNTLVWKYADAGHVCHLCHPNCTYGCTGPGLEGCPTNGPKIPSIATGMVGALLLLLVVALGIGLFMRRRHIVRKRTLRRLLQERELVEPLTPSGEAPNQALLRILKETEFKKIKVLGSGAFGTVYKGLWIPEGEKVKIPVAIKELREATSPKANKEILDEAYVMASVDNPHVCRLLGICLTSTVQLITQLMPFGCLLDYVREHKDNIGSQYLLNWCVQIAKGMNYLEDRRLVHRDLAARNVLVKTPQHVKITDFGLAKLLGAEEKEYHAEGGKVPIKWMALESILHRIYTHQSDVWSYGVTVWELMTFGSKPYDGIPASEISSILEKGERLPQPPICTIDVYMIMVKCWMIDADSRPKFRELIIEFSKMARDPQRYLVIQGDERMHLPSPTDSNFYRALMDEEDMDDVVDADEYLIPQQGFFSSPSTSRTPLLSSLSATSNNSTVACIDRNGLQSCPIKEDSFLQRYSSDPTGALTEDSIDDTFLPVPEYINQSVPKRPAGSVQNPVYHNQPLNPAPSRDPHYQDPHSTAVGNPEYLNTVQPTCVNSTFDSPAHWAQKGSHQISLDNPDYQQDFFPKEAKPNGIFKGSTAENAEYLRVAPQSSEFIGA

CC[C@H](C)[C@@H]([C@@H](CC(=O)N1CCC[C@H]1[C@H](OC)[C@@H](C)C(=O)N[C@H](C)[C@@H](O)c1ccccc1)OC)N(C)C(=O)[C@@H](NC(=O)[C@H](C(C)C)N(C)C)C(C)C [Auristatin E, reference compound]
IC50 [1]: 0.0246 nM
IC50 [2]: 0.0626 nM
IC50 [3]: 0.0117 nM

CC(C)C[C@H](NC(=O)[C@H](Cc1ccccc1)NC(=O)CNC(=O)[C@H](C)NC(=O)[C@H](CC(=O)O)NC(=O)[C@H](CC(N)=O)NC(=O)[C@@H]1CCCN1C(=O)[C@H](Cc1ccc(O)cc1)NC(=O)CNC(=O)[C@H](CCC(N)=O)NC(=O)[C@@H]1CCCN1C(=O)[C@H](CO)NC(=O)[C@@H](N)[C@@H](C)O)C(=O)NCC(=O)N[C@@H](CCCNC(=N)N)C(=O)N[C@@H](CCC(=O)O)C(=O)N[C@@H](CO)C(=O)N[C@H](C(=O)N[C@@H](CC(N)=O)C(=O)O)[C@@H](C)O [HER2-Pep22] (H-TSPQGYPNDAGFLGRESTN-OH; N-terminus and C-terminus assumed)
KD higher than that of HER2-PEP11 and HER2-PEP21 [4]: about 2000 fold
kd ([4]; HER2 immobilized, 1:1 model, 25° C.): 0.0181 s⁻¹
kon ([4]; HER2 immobilized, 1:1 model, 25° C., read-out: ka): 131 M⁻¹ s⁻¹
binding to cells, confocal microscopy [5]: no binding to all the three cell lines

CC[C@H](C)[C@@H]([C@@H](CC(=O)N1CCC[C@H]1[C@H](OC)[C@@H](C)C(=O)N[C@H](C)[C@@H](OC(=O)CCCCC(=NNC(=O)CCCCCN1C(=O)CC(SC[C@H](NC(=O)[C@H](C)NC(=O)[C@H](CCC(=O)O)NC(=O)[C@H](Cc2ccc(O)cc2)NC(=O)[C@H](CC(=O)O)NC(=O)[C@H](Cc2ccc(O)cc2)NC(=O)[C@H](Cc2ccccc2)NC(=O)[C@@H](NC(=O)CNC(=O)[C@@H]2CCCN2C(=O)CNC(=O)[C@H](CC(N)=O)NC(=O)[C@H](CCC(=O)O)NC(=O)CNC(=O)[C@H](CO)NC(=O)[C@@H](N)Cc2c[nH]c3ccccc23)[C@@H](C)O)C(=O)O)C1=O)c1ccccc1)c1ccccc1)OC)N(C)C(=O)[C@@H](NC(=O)[C@H](C(C)C)N(C)C)C(C)C (some centres unmarked) [PDC] (H-WSGENGPGTFYDYEAC(X1)-OH; N-terminus and C-terminus assumed)
half-life at 1 mg/mL ([6]; pH 5, ammonium bicarbonate buffer): 2.8 h
half-life at 1 mg/mL ([6]; pH 7.4, ammonium bicarbonate buffer): > 48 h
more potent than the drug alone [1]: approximately 10 fold
more potent than the drug alone ([1]; listed as Peptide-drug conjugate): around 10 fold
potency lower than drug alone ([2]; control cells (HEK 293), vs auristatin E): more than 100 fold

C[C@H](NC(=O)[C@H](CCC(=O)O)NC(=O)[C@H](Cc1ccc(O)cc1)NC(=O)[C@H](CC(=O)O)NC(=O)[C@H](Cc1ccccc1)NC(=O)[C@H](Cc1ccc(O)cc1)NC(=O)CNC(=O)[C@@H]1CCCN1C(=O)CNC(=O)[C@H](CC(N)=O)NC(=O)[C@H](CCC(=O)O)NC(=O)CNC(=O)[C@H](CO)NC(=O)[C@@H](N)Cc1c[nH]c2ccccc12)C(=O)O [Pep6] (H-WSGENGPGYFDYEA-OH; N-terminus and C-terminus assumed)
koff [7]: 0.00581 s⁻¹
kon [7]: 1210 M⁻¹ s⁻¹

C[C@H](NC(=O)[C@H](CCC(=O)O)NC(=O)[C@H](Cc1ccc(O)cc1)NC(=O)[C@H](CC(=O)O)NC(=O)[C@H](Cc1ccc(O)cc1)NC(=O)[C@H](Cc1ccccc1)NC(=O)CNC(=O)[C@@H]1CCCN1C(=O)CNC(=O)[C@H](CC(N)=O)NC(=O)[C@H](CCC(=O)O)NC(=O)CNC(=O)[C@H](CO)NC(=O)[C@@H](N)Cc1c[nH]c2ccccc12)C(=O)O [Pep11] (H-WSGENGPGFYDYEA-OH; N-terminus and C-terminus assumed)
Kd [7]: 252 nM
koff [7]: 0.0252 s⁻¹
kon [7]: 100000 M⁻¹ s⁻¹
binding to cells after cetuximab pre-incubation ([8]; EGFR blocked by cetuximab for 30 min, A431 and MDA-MB-468): inhibited/decreased
IC50 [1]: 388 nM
IC50 [2]: 1040 nM
lower potency towards control cells compared to cancer cells ([2]; HEK 293 vs cells that over-express EGFR): 2- to 3 fold
IC50 [3]: 420 nM

C[C@H](NC(=O)[C@H](CCC(=O)O)NC(=O)[C@H](Cc1ccc(O)cc1)NC(=O)[C@H](CC(=O)O)NC(=O)[C@H](Cc1ccc(O)cc1)NC(=O)[C@H](Cc1ccccc1)NC(=O)[C@@H](NC(=O)CNC(=O)[C@@H]1CCCN1C(=O)CNC(=O)[C@H](CC(N)=O)NC(=O)[C@H](CCC(=O)O)NC(=O)CNC(=O)[C@H](CO)NC(=O)[C@@H](N)Cc1c[nH]c2ccccc12)[C@@H](C)O)C(=O)O [Pep22] (H-WSGENGPGTFYDYEA-OH; N-terminus and C-terminus assumed)
koff [7]: 0.0259 s⁻¹
kon [7]: 43500 M⁻¹ s⁻¹

C[C@H](N)C(=O)N[C@@H](CCC(=O)O)C(=O)N[C@@H](Cc1ccc(O)cc1)C(=O)N[C@@H](CC(=O)O)C(=O)N[C@@H](Cc1ccccc1)C(=O)N[C@@H](Cc1ccc(O)cc1)C(=O)NCC(=O)N1CCC[C@H]1C(=O)NCC(=O)N[C@@H](CC(N)=O)C(=O)N[C@@H](CCC(=O)O)C(=O)NCC(=O)N[C@@H](CO)C(=O)N[C@@H](Cc1c[nH]c2ccccc12)C(=O)O [Pep24] (H-AEYDFYGPGNEGSW-OH; N-terminus and C-terminus assumed)
koff [7]: 0.103 s⁻¹
kon [7]: 14300 M⁻¹ s⁻¹

SGEWAYDGYEPNFG (Synthetic amino acid - Control) [Pep25, scrambled peptide, negative control]
binding to cells, confocal fluorescence ([8]; FITC labeled peptide, 30 minutes at 37° C.): negligible binding
binding to cancer cell line, flow cytometry [9]: negligible binding
binding to cancer cell line, flow cytometry [10]: negligible binding
